Toxic doses and inconclusive results are not listed. Rule as the data show it: active = T/C of 150% or more; inactive = T/C below 125%.
Test system: L1210 leukemia ip in BDF1 mice, survival T/C
Assay: NCI In Vivo Anticancer Drug Screen. Data for tumor model L1210 Leukemia (intraperitoneal) in B6D2F1 (BDF1) mice
Details: endpoint: mean survival time, higher = longer survival
Outline: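 Survival endpoint. Drug-treated group vs vehicle group, expressed as T divided by C. Tumor passaged by transplantation.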

[1] = dose: 100.0 mg/kg/injection, schedule: Q01DX009 (ip), vehicle: Klucel (hydroxypropylcellulose) (HPC)
[2] = dose: 100.0 mg/kg/injection, schedule: Q04DX003 (ip), vehicle: Klucel (hydroxypropylcellulose) (HPC)
[3] = dose: 200.0 mg/kg/injection, schedule: Q01DX009 (ip), vehicle: Klucel (hydroxypropylcellulose) (HPC)
[4] = dose: 200.0 mg/kg/injection, schedule: Q04DX003 (ip), vehicle: Klucel (hydroxypropylcellulose) (HPC)

Measured: T/C

COc1ccc(CC(=O)OOC(C)(C)C)cc1
inactive: dose: 100.0 mg/kg/injection, schedule: Q04DX003 (ip), vehicle: saline with Tween-80 100 % of control | dose: 200.0 mg/kg/injection, schedule: Q04DX003 (ip), vehicle: saline with Tween-80 92 % of control

CCOC(=O)c1ccc(NS(C)(=O)=O)cc1
inactive: [1] 95 % of control | [2] 114 % of control | [3] 95 % of control | [4] 102 % of control | dose: 400.0 mg/kg/injection, schedule: Q01DX009 (ip), vehicle: Klucel (hydroxypropylcellulose) (HPC) 92 % of control | dose: 400.0 mg/kg/injection, schedule: Q04DX003 (ip), vehicle: Klucel (hydroxypropylcellulose) (HPC) 100 % of control

Cn1cc2ccccc2n1
inactive: dose: 50.0 mg/kg/injection, schedule: Q01DX001 (ip), vehicle: saline with Tween-80 102 % of control | dose: 100.0 mg/kg/injection, schedule: Q01DX001 (ip), vehicle: saline with Tween-80 100 % of control | dose: 200.0 mg/kg/injection, schedule: Q01DX001 (ip), vehicle: saline with Tween-80 102 % of control

COc1ccc(SC2CCCCC2OS(C)(=O)=O)cc1 (stereo not given)
inactive: dose: 50.0 mg/kg/injection, schedule: Q01DX009 (ip), vehicle: Klucel (hydroxypropylcellulose) (HPC) 107 % of control | dose: 50.0 mg/kg/injection, schedule: Q04DX003 (ip), vehicle: Klucel (hydroxypropylcellulose) (HPC) 102 % of control | dose: 100.0 mg/kg/injection, schedule: Q01DX001 (ip), vehicle: Klucel (hydroxypropylcellulose) (HPC) 106 % of control | [1] 109 % of control | [2] 106 % of control | dose: 200.0 mg/kg/injection, schedule: Q01DX001 (ip), vehicle: Klucel (hydroxypropylcellulose) (HPC) 95 % of control | [3] 98 % of control | [4] 104 % of control

O=NN(CCF)C(=O)NC1CCSc2ccccc21 (stereo not given)
active: dose: 20.0 mg/kg/injection, schedule: Q01DX001 (ip), vehicle: other 161 % of control | dose: 30.0 mg/kg/injection, schedule: Q01DX001 (ip), vehicle: other 289 % of control
inactive: dose: 6.0 mg/kg/injection, schedule: Q01DX001 (ip), vehicle: other 109 % of control | dose: 9.0 mg/kg/injection, schedule: Q01DX001 (ip), vehicle: other 120 % of control

CCOC(C)c1ccccc1 (stereo not given)
inactive: dose: 200.0 mg/kg/injection, schedule: Q01DX001 (ip), vehicle: carboxymethylcellulose (CMC) 95 % of control

O=C(Nc1ccc(C2=NCCN2)c(Cl)c1)c1cccc(C(=O)Nc2ccc(C3=NCCN3)c(Cl)c2)c1
inactive: dose: 15.0 mg/kg/injection, schedule: Q01DX Z (ip), vehicle: carboxymethylcellulose (CMC) 93 % of control | dose: 30.0 mg/kg/injection, schedule: Q01DX Z (ip), vehicle: carboxymethylcellulose (CMC) 86 % of control

Nc1ncnc2nc(-c3ccc(C(=O)c4cccc(NC(=O)Nc5ccc(S(=O)(=O)F)cc5)c4)cc3)[nH]c12
inactive: dose: 37.5 mg/kg/injection, schedule: Q01DX001 (ip), vehicle: saline 95 % of control | dose: 75.0 mg/kg/injection, schedule: Q01DX001 (ip), vehicle: saline 92 % of control | dose: 150.0 mg/kg/injection, schedule: Q01DX001 (ip), vehicle: saline 90 % of control

CC12CCCCC1CC/C(=C\c1ccc(Cl)cc1)C2=O (stereo not given)
inactive: dose: 100.0 mg/kg/injection, schedule: Q01DX001 (ip), vehicle: saline 114 % of control | dose: 200.0 mg/kg/injection, schedule: Q01DX001 (ip), vehicle: saline 95 % of control | dose: 400.0 mg/kg/injection, schedule: Q01DX001 (ip), vehicle: saline 92 % of control

CCOC(=O)CCSc1ccc(NC)cc1
inactive: dose: 100.0 mg/kg/injection, schedule: Q01DX009 (ip), vehicle: saline 94 % of control | dose: 100.0 mg/kg/injection, schedule: Q04DX003 (ip), vehicle: acetone 102 % of control | dose: 200.0 mg/kg/injection, schedule: Q01DX009 (ip), vehicle: saline 96 % of control | dose: 200.0 mg/kg/injection, schedule: Q04DX003 (ip), vehicle: acetone 102 % of control | dose: 400.0 mg/kg/injection, schedule: Q01DX009 (ip), vehicle: saline 97 % of control | dose: 400.0 mg/kg/injection, schedule: Q04DX003 (ip), vehicle: acetone 105 % of control

C[N+](C)(C)CCC[N+]1(C)CC2C3CCCCC3=C3CCCCC3C2C1 (stereo not given)
inactive: dose: 5.0 mg/kg/injection, schedule: Q01DX001 (ip), vehicle: saline 95 % of control | dose: 10.0 mg/kg/injection, schedule: Q01DX001 (ip), vehicle: saline 98 % of control | dose: 20.0 mg/kg/injection, schedule: Q01DX001 (ip), vehicle: saline 101 % of control

COc1cc2c(c(OC)c1OC)-c1ccc(SCC3CCC4CC3C4(C)C)c(=O)cc1C(NC(C)=O)CC2 (stereo not given)
inactive: dose: 12.5 mg/kg/injection, schedule: Q04DX002 (ip), vehicle: saline 100 % of control | dose: 25.0 mg/kg/injection, schedule: Q04DX002 (ip), vehicle: saline 95 % of control | dose: 50.0 mg/kg/injection, schedule: Q04DX002 (ip), vehicle: saline 106 % of control

COc1cc2c(cc1OC)C(=O)C(c1ccc3c(c1)OCO3)CC2 (stereo not given)
inactive: dose: 100.0 mg/kg/injection, schedule: Q01DX009 (ip), vehicle: water 102 % of control | dose: 100.0 mg/kg/injection, schedule: Q04DX003 (ip), vehicle: water 94 % of control | dose: 200.0 mg/kg/injection, schedule: Q01DX009 (ip), vehicle: water 91 % of control | dose: 200.0 mg/kg/injection, schedule: Q04DX003 (ip), vehicle: water 92 % of control | dose: 400.0 mg/kg/injection, schedule: Q01DX009 (ip), vehicle: water 101 % of control | dose: 400.0 mg/kg/injection, schedule: Q04DX003 (ip), vehicle: water 94 % of control
